Nine compounds from US12110279B2, “Triazolones, tetrazolones, and imidazolones, or their salts, and pharmaceutical compositions comprising the same” (Yuhan Corporation, priority 2021, dated 2024) can be followed below.

SMILES strings stand for the structures. Counter-ions that a name gives are not always drawn. Like-named read-outs stand apart in the source and are kept apart here.

Format in all cases: biochemical
One assay deals with T1, recombinant human VAP-1 (Homo sapiens, UniProt Q16853).
T1 construct: purchased R&D systems
T1 sequence (Q16853 1-763): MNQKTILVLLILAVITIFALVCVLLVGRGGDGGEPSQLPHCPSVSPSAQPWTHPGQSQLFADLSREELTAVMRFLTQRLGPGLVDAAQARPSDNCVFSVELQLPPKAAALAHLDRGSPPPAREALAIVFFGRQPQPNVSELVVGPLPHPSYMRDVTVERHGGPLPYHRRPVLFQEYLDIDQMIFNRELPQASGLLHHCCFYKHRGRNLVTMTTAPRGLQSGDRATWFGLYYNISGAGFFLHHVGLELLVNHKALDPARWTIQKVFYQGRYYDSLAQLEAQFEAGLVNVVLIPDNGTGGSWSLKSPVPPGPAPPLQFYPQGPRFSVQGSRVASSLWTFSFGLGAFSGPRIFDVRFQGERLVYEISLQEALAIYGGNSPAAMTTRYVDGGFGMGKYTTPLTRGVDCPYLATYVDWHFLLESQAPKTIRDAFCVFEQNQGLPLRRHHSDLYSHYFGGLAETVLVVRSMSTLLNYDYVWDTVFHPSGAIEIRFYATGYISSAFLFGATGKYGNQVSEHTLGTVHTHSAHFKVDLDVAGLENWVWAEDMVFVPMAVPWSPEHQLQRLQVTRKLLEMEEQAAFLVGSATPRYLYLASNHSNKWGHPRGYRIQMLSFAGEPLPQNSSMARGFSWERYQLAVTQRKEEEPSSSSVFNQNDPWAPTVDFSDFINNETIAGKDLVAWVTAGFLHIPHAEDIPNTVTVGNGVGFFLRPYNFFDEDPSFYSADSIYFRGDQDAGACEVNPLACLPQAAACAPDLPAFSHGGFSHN
The assay is described as follows: Amplex Red HRP-coupled amine oxidase activity evaluation, recombinant human VAP-1. The settings on record: substrate 1 mM benzylamine; 30 min preincubation at 37° C.; read-out: Inhibitory Activity (IC50, nM) human VAP-1. In short, it runs like this: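 Benzylamine served as substrate (1 mM in the reaction mix, with 200 uM Amplex Red and 1 U/mL HRP), with the H2O2 produced detected as resorufin fluorescence. Compound and VAP-1 were first incubated for 30 min at 37° C in pH 7.4 sodium phosphate buffer.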

The target of assay [1] is T2, recombinant human MAO-A (monoamine oxidase-A) (Homo sapiens, UniProt P21397).
T2 construct: purchased Sigma-Aldrich
T2 sequence (P21397 1-527): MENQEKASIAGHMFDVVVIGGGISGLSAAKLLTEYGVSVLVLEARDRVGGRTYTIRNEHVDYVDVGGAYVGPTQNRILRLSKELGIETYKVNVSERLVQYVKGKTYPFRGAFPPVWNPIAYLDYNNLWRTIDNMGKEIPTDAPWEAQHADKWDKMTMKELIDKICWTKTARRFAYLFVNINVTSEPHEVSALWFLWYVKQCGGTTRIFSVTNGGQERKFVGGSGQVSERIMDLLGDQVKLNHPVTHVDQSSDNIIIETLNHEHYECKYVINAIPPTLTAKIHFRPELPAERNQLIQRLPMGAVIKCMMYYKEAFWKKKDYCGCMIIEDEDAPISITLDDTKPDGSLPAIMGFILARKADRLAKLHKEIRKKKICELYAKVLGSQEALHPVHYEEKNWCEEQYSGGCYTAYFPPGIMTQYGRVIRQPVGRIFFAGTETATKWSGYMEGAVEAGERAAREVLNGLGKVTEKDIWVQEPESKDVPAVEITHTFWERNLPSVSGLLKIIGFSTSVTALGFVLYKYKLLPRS
Nature of the assay: Amplex Red HRP-coupled amine oxidase activity evaluation, recombinant human MAO-A. As to conditions: substrate 0.5 mM tyramine; read-out: Inhibitory Activity (IC50, nM) MAO-A.

In assay [2] the target is T3, recombinant human MAO-B (monoamine oxidase-B) (Homo sapiens, UniProt P27338).
T3 construct: purchased Sigma-Aldrich
T3 sequence (P27338 1-520): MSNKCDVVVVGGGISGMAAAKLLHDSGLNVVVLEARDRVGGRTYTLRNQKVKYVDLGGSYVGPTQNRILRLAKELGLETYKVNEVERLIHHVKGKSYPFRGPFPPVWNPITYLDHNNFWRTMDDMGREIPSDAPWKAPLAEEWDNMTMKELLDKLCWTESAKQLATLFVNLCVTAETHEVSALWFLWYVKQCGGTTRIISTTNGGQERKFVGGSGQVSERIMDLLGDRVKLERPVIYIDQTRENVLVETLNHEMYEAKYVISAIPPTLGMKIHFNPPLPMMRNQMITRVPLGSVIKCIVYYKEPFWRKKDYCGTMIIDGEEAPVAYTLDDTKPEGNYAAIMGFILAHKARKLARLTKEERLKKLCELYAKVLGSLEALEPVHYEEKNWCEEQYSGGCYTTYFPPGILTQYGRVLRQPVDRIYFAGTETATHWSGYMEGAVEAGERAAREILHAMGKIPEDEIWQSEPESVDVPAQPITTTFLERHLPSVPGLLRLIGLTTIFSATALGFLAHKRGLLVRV
Nature of the assay: Amplex Red HRP-coupled amine oxidase activity evaluation, recombinant human MAO-B. As to conditions: substrate 1 mM benzylamine; read-out: Inhibitory Activity (IC50, nM) MAO-B.

The target of assay [3] is T4, recombinant human DAO (diamine oxidase) (Homo sapiens, UniProt P19801).
T4 construct: purchased R&D systems
T4 sequence (P19801 20-751): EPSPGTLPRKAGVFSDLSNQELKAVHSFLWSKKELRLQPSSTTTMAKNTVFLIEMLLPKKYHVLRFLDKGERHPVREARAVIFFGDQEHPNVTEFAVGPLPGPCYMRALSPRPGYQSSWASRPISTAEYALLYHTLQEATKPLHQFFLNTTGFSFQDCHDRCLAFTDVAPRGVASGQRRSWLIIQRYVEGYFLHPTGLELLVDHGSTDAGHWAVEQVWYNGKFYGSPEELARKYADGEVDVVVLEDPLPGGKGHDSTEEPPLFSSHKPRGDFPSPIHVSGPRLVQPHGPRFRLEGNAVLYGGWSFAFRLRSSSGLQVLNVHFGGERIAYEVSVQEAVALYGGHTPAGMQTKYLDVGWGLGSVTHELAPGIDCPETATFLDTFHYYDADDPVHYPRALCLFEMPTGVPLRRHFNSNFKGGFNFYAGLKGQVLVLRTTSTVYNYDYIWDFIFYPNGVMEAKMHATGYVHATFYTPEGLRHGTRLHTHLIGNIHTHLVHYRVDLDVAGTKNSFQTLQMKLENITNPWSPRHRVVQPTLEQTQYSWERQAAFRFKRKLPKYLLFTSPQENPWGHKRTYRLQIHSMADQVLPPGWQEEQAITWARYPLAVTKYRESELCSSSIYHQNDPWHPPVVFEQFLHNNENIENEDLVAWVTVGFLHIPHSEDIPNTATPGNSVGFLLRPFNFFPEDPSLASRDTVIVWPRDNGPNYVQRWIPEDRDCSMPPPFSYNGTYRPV
The assay is described as follows: Amplex Red HRP-coupled amine oxidase activity evaluation, recombinant human DAO.

[4] abbreviates: substrate 1 mM putrescine, read-out: Inhibitory Activity (IC50, nM) DAO.

In the case of `Cc1cc(-c2ccc(Cn3nnn(CC(CN)=C(F)F)c3=O)s2)cc2c1NC(=O)CC2` [Example 45, 6-[5-[[4-[2-(aminomethyl)-3,3-difluoro-allyl]-5-oxo-tetrazol-1-yl]methyl]-2-thienyl]-8-methyl-3,4-dihydro-1H-quinolin-2-one trifluoroacetate], the IC50 on recombinant human VAP-1 came to 0.6 nM; in assay [1], 49200 nM; in assay [2], 7210 nM; in assay [3] (setting [4]), 1870 nM.
On the same counts, the results for `CN1C(=O)CCc2cc(-c3ccc(Cn4nnn(CC(CN)=C(F)F)c4=O)s3)ccc21` [Example 46, 6-[5-[[4-[2-(aminomethyl)-3,3-difluoro-allyl]-5-oxo-tetrazol-1-yl]methyl]-2-thienyl]-1-methyl-3,4-dihydroquinolin-2-one trifluoroacetate] are 0.5 nM, 63100 nM, 6830 nM and 1050 nM.
For `CCn1cc(-c2ccc(Cn3nnn(CC(CN)=C(F)F)c3=O)s2)cn1` [Example 47, 1-[2-(aminomethyl)-3,3-difluoro-allyl]-4-[[5-(1-ethylpyrazol-4-yl)-2-thienyl]methyl]tetrazol-5-one trifluoroacetate], the IC50 at recombinant human VAP-1 is 0.5 nM; in assay [1] it was greater than 100000 nM; in assay [2], 15100 nM; in assay [3] (setting [4]) it was 8170 nM.
With `NCC(Cn1nnn(-c2cncc(-c3ccc4c(c3)OCO4)c2)c1=O)=C(F)F` [Example 48, 1-[2-(aminomethyl)-3,3-difluoro-allyl]-4-[5-(1,3-benzodioxol-5-yl)-3-pyridyl]tetrazol-5-one trifluoroacetate], the IC50 at recombinant human VAP-1 stood at 2.9 nM; in assay [1], 36900 nM; in assay [2], 4400 nM; in assay [3], 56 nM.
Take `Cc1cc(-c2cncc(-n3nnn(CC(CN)=C(F)F)c3=O)c2)cc2c1NC(=O)CC2` [Example 49, 6-[5-[4-[2-(aminomethyl)-3,3-difluoro-allyl]-5-oxo-tetrazol-1-yl]-3-pyridyl]-8-methyl-3,4-dihydro-1H-quinolin-2-one trifluoroacetate]: the IC50 is 0.9 nM on recombinant human VAP-1, 52200 nM in assay [1], 7080 nM in assay [2] and 3.5 nM in assay [3].
For `CCn1cc(-c2ccc(Cn3ccn(CC(CN)=C(F)F)c3=O)s2)ccc1=O` [Example 50, 5-[5-[[3-[2-(aminomethyl)-3,3-difluoro-allyl]-2-oxo-imidazol-1-yl]methyl]-2-thienyl]-1-ethyl-pyridin-2-one trifluoroacetate], the IC50 at recombinant human VAP-1 is greater than 100 nM; in assay [1] it was greater than 100000 nM; in assay [2], greater than 100000 nM; in assay [3] (setting [4]), 8.3 nM.
Regarding `CN1C(=O)CCc2cc(-c3ccc(Cn4ccn(CC(CN)=C(F)F)c4=O)s3)ccc21` [Example 51, 6-[5-[[3-[2-(aminomethyl)-3,3-difluoro-allyl]-2-oxo-imidazol-1-yl]methyl]-2-thienyl]-1-methyl-3,4-dihydroquinolin-2-one trifluoroacetate], the IC50 on recombinant human VAP-1 is 1.9 nM; in assay [1], greater than 100000 nM; in assay [2], 63100 nM; in assay [3] (setting [4]), 206 nM.
As for `CCn1cc(-c2ccc(Cn3ccn(CC(CN)=C(F)F)c3=O)s2)cn1` [Example 52, 1-[2-(aminomethyl)-3,3-difluoro-allyl]-3-[[5-(1-ethylpyrazol-4-yl)-2-thienyl]methyl]imidazol-2-one trifluoroacetate], the IC50 at recombinant human VAP-1 was greater than 100 nM; in assay [1], greater than 100000 nM; in assay [2] it was 60200 nM; in assay [3] (setting [4]) it was 192 nM.
On the same counts, the results for `NCC(Cn1ccn(Cc2ccc(-c3ccn4ncnc4c3)s2)c1=O)=C(F)F` [Example 53, 1-[2-(aminomethyl)-3,3-difluoro-allyl]-3-[[5-([1,2,4]triazolo[1,5-a]pyridin-7-yl)-2-thienyl]methyl]imidazol-2-one trifluoroacetate] are greater than 100 nM, greater than 100000 nM, 80500 nM and 38200 nM.
